{"source": "patent US9061030B2", "about": "“sGC stimulators” (IRONWOOD PHARMACEUTICALS, INC., priority 2010, dated 2015)", "tested_on": "Thoracic aortic rings", "assay": "Thoracic aortic rings assay", "set-up": "species or system rat", "conditions": "relaxation of rat thoracic aortic rings contracted with 100 ng/mL phenylephrine; read-out: Aortic Ring EC50", "description": "Thoracic aortic rings were dissected from anesthetized (isoflurane) male Sprague-Dawley rats weighing 275-299 g. Tissues were immediately transferred to ice-cold Krebs-Henseleit solution, which had been aerated with 95% O2 and 5% CO2 for 30 minutes. Following removal of connective tissue, aortic sections were cut into 4 rings (˜2 mm each) and suspended on 2 L-shaped hooks, with one hook fixed at the bottom of the tissue bath (Schuler Organ Bath, Harvard Apparatus) and the other connected to a force transducer (F30 Force Transducer, Harvard Apparatus). Baths contained Krebs Henseleit solution (10 mL) heated to 37° C. and aerated with 95% O2 and 5% CO2. Rings were brought to an initial tension of 0.3-0.5 g and gradually raised to a resting tension of 1.0 g over 60 minutes. Rings were rinsed with Krebs Henseleit solution (heated to 37° C. and aerated with 95% 02 and 5% CO2) at 15 minute intervals until a stable baseline was obtained. Rings were considered to be stable after a resting tension of 1.0 g was maintained (for approximately 10 minutes) without need for adjustment. Rings were then contracted with 100 ng/mL phenylephrine by adding 100 μL of a 10 μg/mL phenylephrine stock solution. Tissues achieving a stable contraction were then treated in a cumulative, dose dependent manner with test compounds prepared in dimethylsulfoxide (DMSO). In some cases, tissues were rinsed three times over a 5 minute period with Krebs-Heinseleit's solution (heated to 37° C. and aerated with 95% 02 and 5% CO2), allowed to stabilize at baseline, and then used for characterization of other test articles or DMSO effects. All data were collected using the HSE-ACAD software provided by Harvard Apparatus. Percent relaxation effects were calculated in Microsoft Excel using the recorded tension value of 100 ng/mL phenylephrine treatment as 0% inhibition and, after washing the tissue with buffer, the original resting tension of tissue is used as 100% inhibition. EC50 values were calculated from concentration-response curves generated with GraphPad Prism Software.\nThe biological data for some of the compounds of Formula IA and Formula IB, in comparison with the prior art compound, BAY 41-2272, as the reference compound, determined by the thoracic aorta ring assay are presented in Table 6 below.", "data": [{"smiles": "Nc1nc(-c2nn(Cc3ccccc3F)c3ncccc23)ncc1C1CC1", "note": "[BAY-41-2272, reference compound]", "values": [{"measurement": "EC50", "value": "< 1000", "unit": "nM"}]}]}
